According to publication PMC7613620, “Reaction hijacking of tyrosine tRNA synthetase as a whole-of-life-cycle antimalarial strategy” (Science (New York, N.Y.), 2022):
Like-named read-outs stand apart in the source and are kept apart here.

Columns and labels:
PfYRSS234C = PfYRSS234C (Plasmodium falciparum, UniProt Q8IAR7, S234C); assay: biochemical; assay type: binding
Protocol: (§1) 804 An intron was detected in the PftRNATyr sequence, that was not indicated in PlasmoDB. A T7 RNA
(§2) 805 polymerase promoter sequence was added to the 5’ end of the DNA sequence of P. falciparum and H.
(§3) 806 sapiens tRNATyr. This DNA template and its complementary strand were custom-synthesized by Sigma-
(§4) 807 Aldrich. Two oligonucleotides were annealed at 95°C for 5 min and the double-stranded DNA template
(§5) 808 was used for in vitro transcription. The transcription reaction was incubated at 37°C overnight. The reaction
(§6) 809 mixture consists of template DNA, T7 RNA polymerase and NTP mix as per manufacturer's instructions
(§7) 810 (HiScribe™ T7 Quick High Yield RNA Synthesis Kit, NEB). On the following day, the reaction mixture
(§8) 811 was treated with DNase I at 37°C for 15 min. tRNA was purified using RNA clean-up spin columns
(§9) 812 (Monarch® RNA Cleanup Kit, NEB) to remove contaminants from the transcription reaction.
(§10) 814 Differential scanning fluorimetry (DSF)
(§11) 815 PfYRS and HsYRS at 0.1 mg/ml were incubated with various substrates at 37°C for 1-3 h. PfYRS was
(§12) 816 assayed in 25 mM Tris, pH 8, 150 mM NaCl, 5 mM MgCl2 and 1 mM TCEP. HsYRS was assayed in 50
(§13) 817 mM Tris, pH 7.5, 150 mM NaCl, 50 mM KCl, 5 mM MgCl2 and 1 mM TCEP. SYPRO Orange (Sigma-
(§14) 818 Aldrich; 5,000X concentrate in DMSO) was added to the reaction mixture at a final concentration of 2.5X.
(§15) 819 25 µL of the sample was added into each well of a 96-well qPCR plate (Applied Biosystems). The plate
(§16) 820 was sealed and analysed using StepOnePlus Real-Time PCR system (Applied Biosystems). The samples
(§17) 821 were heated from 20°C to 90°C with a 1% continuous gradient. The thermal unfolding curve was plotted
(§18) 822 as the first derivative curve of the raw fluorescence values. The melting temperature (Tm), defined as the
(§19) 823 peak of the first derivative curve, was used to assess the thermal stability of protein-ligand complexes. KD
(§20) 824 values were calculated from DTm using the equation: ln(KD/[L]) = -131.5 x (∆Tm/Tm,apo) - 1.9, where [L]
(§21) 825 is the concentration of ligand and T is the temperature in Kelvin (40). […]

PfYRS = PfYRS (Plasmodium falciparum, UniProt Q8IAR7); assay: biochemical; assay type: binding
Protocol: as §1, §2, §3, §4, §5, §6, §7, §8, §9, §10, §11, §12, §13, §14, §15, §16, §17, §18, §19, §20, §21

HsYRS = molecular target: T1, HsYRS (Homo sapiens, UniProt P54577); assay: Differential scanning fluorimetry, HsYRS; assay type: binding
T1 construct: made in house; host or cells: E. coli BL21(DE3), pET-11a
T1 sequence (P54577 1-364): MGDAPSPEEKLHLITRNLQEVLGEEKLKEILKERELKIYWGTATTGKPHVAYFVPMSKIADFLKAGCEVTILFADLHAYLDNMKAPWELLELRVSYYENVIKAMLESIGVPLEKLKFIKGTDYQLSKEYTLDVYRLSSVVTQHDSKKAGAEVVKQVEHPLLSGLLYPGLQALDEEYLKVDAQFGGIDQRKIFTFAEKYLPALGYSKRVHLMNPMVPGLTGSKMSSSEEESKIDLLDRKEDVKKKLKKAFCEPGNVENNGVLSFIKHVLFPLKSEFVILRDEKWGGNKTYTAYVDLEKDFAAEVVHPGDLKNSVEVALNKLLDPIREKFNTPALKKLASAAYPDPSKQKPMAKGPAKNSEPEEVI
Protocol: This DNA template and its complementary strand were custom-synthesized by Sigma-
as §7, §16
The thermal unfolding curve was plotted
The melting temperature (Tm), defined as the
Reactions were conducted in 50 mM Tris-
Reactions were conducted in 50 mM Tris-HCL, pH 7.6,

PfYRS knockdown line = assay: Growth inhibition of aptamer-regulatable PfYRS knockdown line (luciferase, 72 h); assay type: cell-based, Plasmodium falciparum; conditions: for IC50: Plasmodium falciparum, read-out: IC50 against the PfYRS knockdown line (control compounds)
Text: 674 Generation and analysis of PfYRS knock-down transfectants
675 A conditional regulatable line for the cytosolic PfYRS (PF3D7_0807900) was generated by integrating the
676 gene regulatable system, TetR-DOZI-RNA aptamer module at the 3'-end of the target gene, in P. falciparum
677 parasites using CRISPR-Cas9 and homology-driven repair (55, 56). A line harbourbing an aptamer-
678 regulatable fluorescent protein (eYFP) integrated in the cg6 locus is used as the control (55). Transfection
679 into parasites was carried out by preloading RBCs with the donor vector as described previously (57).
680 Briefly, 50 μg of purified plasmid DNA was mixed with human RBCs and subjected to 8 square wave
681 electroporation pulses of 365 V for 1 ms each, separated by 0.1 s in a 0.2 cm cuvette. The plasmid DNA
682 preloaded cells were inoculated with NF54 expressing Cas9 and T7 RNA polymerase. […]
696 Stock solutions of ML901, DHA or borrelidin (Cayman Chemicals) were dispensed into 96-well U-bottom
697 BD Falcon™ plates and serially diluted in complete medium to yield final concentrations ranging from 20-
698 0.08 nM. Synchronous ring-stage YRScyt conditional knockdown line and the aptamer-regulatable control
699 line in varying aTc concentrations (high = 50 or 500 nM, low = 1 nM, and no aTc) were distributed into
700 the drug plate. Lowest drug treatment and a lethal dose of chloroquine (200 nM) served as reference
701 controls. Growth inhibition was analysed after 72 h using the Renilla-Glo(R) Luciferase Assay System (ref
702 no E2750 Promega) and the GloMax® Discover Multimode Microplate Reader (Promega), and IC50 values
703 were obtained from corrected dose-response curves using GraphPad Prism (version 8; GraphPad Software). […]
706 CRISPR/Cas9 was used to generate parasites encoding the S234C mutation in exon 2 of PfYRS, as shown
707 in Suppl Figure 6. Two guide RNAs (gRNA1: […] and gRNA2:
708 […]) were selected using Benchling (benchling.com), and cloned into the
709 pDC2-coCas9-gRNA plasmid essentially as described previously (58). A donor template of 645 bp,
710 encompassing the majority of the 708 bp exon 2, was synthesized (ThermoFisher) and cloned into the
711 AatII/EcoRI sites of both the pDC2-coCas9-gRNA1 and pDC2-coCas9-gRNA2 plasmids. In addition to
712 the TCC>TGC (S234C) mutation, additional silent shield mutations were introduced to prevent gRNA-
713 Cas9 complex binding, as shown in Suppl Figure 6. Ring-stage P. falciparum parasites (Dd2 strain) at 10%
714 parasitemia (150 µL of packed cells) were transfected with 50 µg of plasmid DNA using a BioRad Gene
715 Pulser II (310 V, 950 µF), and selected with 5 nM WR99210 (Jacobus Pharmaceuticals) for 8 days, after
716 which culture was continued without drug pressure until transfectants were obtained. Clones of the
717 PfYRSS234C mutant parasites were isolated by limiting dilution and verified by Sanger sequencing.
719 Protein translation assay
720 P. falciparum Cam 3.II_Rev (25) schizont- (43-48 h p.i.) infected RBCs were pre-incubated with inhibitor
Using a modification of a published procedure (14), the
722 cells were labelled with O-propargyl-puromycin (OPP; 4 µM) for 1 h, washed 3x (PBS +3% serum) and
723 then fixed for 10 minutes (4% formaldehyde/0.02% glutaraldehyde in PBS). The click reaction was
724 performed for 1 h in the presence of CuSO4 (0.1 mM), THPTA (0.5 mM) and sodium ascorbate (5 mM) to
725 bring about azide-alkyne cycloaddition to Alexa Fluor 488 azide (0.1 µM). Flow cytometry was performed
726 using the FITC and Cy™5.5 channels to detect the Alexa Fluor 488 and PI, respectively.
729 Cam 3.II_Rev (25) trophozoite-infected RBCs (25-30 h p.i.) were incubated with inhibitor for 3 h at 10%
730 hematocrit and 5% parasitemia. The RBC pellet was washed 3 x in PBS + cOmplete. Cells were centrifuged
731 at 380 x g for 5 min and the pelleted cells lysed by resuspension in PBS + 0.05% saponin for 5 min on ice.

P. falciparum (3D7) = P. falciparum (3D7) culture growth inhibition, 72 h; assay type: cell-based, Plasmodium falciparum; conditions: Plasmodium falciparum, read-out: Pf3D7 IC50(72h); P. falciparum 3D7, 72 h
Protocol: (1 picture or pasted object on this page, not shown here)
553 Sigma-Aldrich) for 48-72 h. For drug pulse assays, tightly synchronized parasites (1-1.5% parasitemia,
554 0.2% final hematocrit) were added to the plates and incubated for 3 h. Drugs were removed and the
555 parasitemia assessed in the trophozoite stage of the next cycle.
557 Compounds were tested against a range of drug resistant field isolates and laboratory strains using a
558 modified [3H]-hypoxanthine incorporation assay, as previously reported (46). Field isolates 7G8, Cam3.1,
559 Dd2, K1, TM90C2B and NF54 were obtained from MR4 (www.beiresources.org).
561 Mammalian cell culture experiments
562 The HepG2 (Human hepatocyte carcinoma) cell line was procured from ATCC (American Type
563 Culture Collection, Manassas, USA; HB-8065) and viability assessed using Cell Titer-GLO luminescent
564 cell viability assay reagents (Promega, catalogue number: G7570) (47, 48). For the assay, 2000 cells/well
565 were plated in 384-well plates 24 h prior to the experiment and incubated at 37°C in a CO2 incubator. The
566 medium was removed and cells were treated with fresh medium containing either vehicle (0.5% DMSO)
567 or serially diluted test compounds or doxorubicin (1.3 nM to 25 µM) in a final volume of 50 µl/well and
568 further incubated for 72 h at 37°C in a CO2 incubator.
569 were treated with 5 µl of 1% Triton X-100 (final assay conc. 0.1%). Following incubation, 25 µl of medium
570 was discarded and 25 µl of Cell Titer-GLO reagent was added to each well and the plate was kept on a plate
571 shaker for 15 min at 25°C with shaking at 300 rpm. Luminescence signals were measured in a Spectramax
572 M5 reader (Molecular Devices).
574 H1650 is a human lung cancer derived ATG7-null cell line (49) that can be used to assess effects on targets
576 adenocarcinoma; bronchoalveolar carcinoma). Other cells lines used are: H460 (NCI-H460; human lung;
577 carcinoma; large cell lung cancer; ATCC: HTB-177); and HCT116 (human colon; colorectal carcinoma;
578 ATCC: CCL-247; Lot : 5056139). Each of the cell lines was received from the American Type Culture
579 Collection (ATCC) and passaged twice before freezing. Cells were cultured in the presence or absence of
580 inhibitors and cell viability was assessed by comparing the ATP content in compound-treated wells with
581 that in DMSO-treated wells as previously described (11).
583 HeLa cells (human cervical adenocarcinoma; genome sequenced (Garvin Institute, Australia) and verified

PfYRS, sequence (Q8IAR7 entry or part of it): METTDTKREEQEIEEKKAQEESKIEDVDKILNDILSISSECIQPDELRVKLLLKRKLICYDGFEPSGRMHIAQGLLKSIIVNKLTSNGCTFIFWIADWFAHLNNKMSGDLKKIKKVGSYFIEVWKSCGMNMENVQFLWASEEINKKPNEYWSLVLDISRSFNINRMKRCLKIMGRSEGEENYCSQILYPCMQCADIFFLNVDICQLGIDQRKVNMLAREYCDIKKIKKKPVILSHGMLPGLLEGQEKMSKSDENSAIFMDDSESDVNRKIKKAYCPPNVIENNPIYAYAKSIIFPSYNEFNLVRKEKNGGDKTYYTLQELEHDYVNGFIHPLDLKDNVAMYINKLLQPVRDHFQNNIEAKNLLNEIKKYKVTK
PfYRSS234C, sequence (Q8IAR7 whole entry S234C): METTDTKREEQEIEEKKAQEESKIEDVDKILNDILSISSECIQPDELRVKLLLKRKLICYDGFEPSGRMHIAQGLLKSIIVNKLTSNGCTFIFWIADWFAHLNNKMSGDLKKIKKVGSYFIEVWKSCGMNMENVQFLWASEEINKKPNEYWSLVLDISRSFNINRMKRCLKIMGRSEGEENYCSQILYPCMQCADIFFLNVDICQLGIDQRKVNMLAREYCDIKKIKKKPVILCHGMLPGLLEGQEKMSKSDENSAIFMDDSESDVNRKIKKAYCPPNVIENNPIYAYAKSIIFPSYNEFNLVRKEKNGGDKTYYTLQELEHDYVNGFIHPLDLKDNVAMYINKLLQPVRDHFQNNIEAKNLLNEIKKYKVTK

Row | Structure (SMILES) | Tm (PfYRSS234C; PfYRSS234C 2.3 μM, after incubation at 37°C for 3 h) | DTm (PfYRSS234C; PfYRSS234C, versus apo) | Kd (PfYRSS234C; PfYRSS234C, estimated from DSF by empirical correlation of DTm and KD, read-out: Apparent KD*) | Tm (PfYRS; PfYRS 2.3 μM, after incubation at 37°C for 3 h) | DTm (PfYRS; PfYRS, versus apo) | Kd (PfYRS; PfYRS, estimated from DSF by empirical correlation of DTm and KD, read-out: Apparent KD*) | Tm (HsYRS; HsYRS 2.3 μM, after incubation at 37°C for 3 h) | DTm (HsYRS; HsYRS, versus apo) | Kd (HsYRS; HsYRS, estimated from DSF by empirical correlation of DTm and KD, read-out: Apparent KD*) | IC50 (PfYRS knockdown line; high aTc (500 nM)) | IC50 (PfYRS knockdown line; low aTc (1 nM)) | IC50 (PfYRS knockdown line; no aTc) | Fold change in IC50 (high aTc/ no aTc), PfYRS knockdown line (control compounds) (PfYRS knockdown line; high aTc 500 nM) | IC50 (P. falciparum (3D7))
1 | Nc1ncnc2c1ncn2[C@@H]1O[C@H](COP(=O)(O)OC(=O)[C@@H](N)Cc2ccc(O)cc2)[C@@H](O)[C@H]1O [AMP-Tyr] | 57.1 ± 0.3 oC | 6.5 oC | 24 nM | 62.6 ± 0.2 oC | 12.4 oC | 2.2 nM | 53.3 ± 0.2 oC | 2.8 oC | 116 nM | – | – | – | – | –
2 | C[C@H]1[C@@H](O)O[C@@H]2O[C@@]3(C)CC[C@H]4[C@H](C)CC[C@@H]1[C@@]24OO3 [DHA, Dihydroartemisinin] | – | – | – | – | – | – | – | – | – | 1.1 ± 0.3 nM | 1.6 ± 0.5 nM | 1.2 ± 0.4 nM | no change | 2.9 ± 0.2 nM
